From ChEMBL document CHEMBL5321200, “Discovery of the GSH responsive "Y-PROTACs" targeting ALK and CDK4/6 as a potential treatment for cancer” (Eur J Med Chem, 2023)
pIC50: −log10 of the molar value. Activity calls are given as the source filed them. The calls are words filed in the database; no cut-off is given here.

Assays:
NCI-H3122 [1] = experiment: Induction of apoptosis in human NCI-H3122 cells assessed as necrotic cells at 0.625 uM incubated for 48 hrs by Annexin V-FITC/propidium iodide staining based flow cytometric analysis (reference value: 0.57%); type: functional
[2] = molecular target: T1, Protein cereblon/Cyclin-dependent kinase 4 (Homo sapiens, UniProt P11802+Q96SW2); experiment: PROTAC activity at CRBN/CDK4 in human NCI-H3122 cells assessed as induction of CDK4 protein degradation at 10 uM incubated for 24 hrs by Western blot analysis relative to control; type: cell-based
T1 sequence (P11802 2-303 limits assumed): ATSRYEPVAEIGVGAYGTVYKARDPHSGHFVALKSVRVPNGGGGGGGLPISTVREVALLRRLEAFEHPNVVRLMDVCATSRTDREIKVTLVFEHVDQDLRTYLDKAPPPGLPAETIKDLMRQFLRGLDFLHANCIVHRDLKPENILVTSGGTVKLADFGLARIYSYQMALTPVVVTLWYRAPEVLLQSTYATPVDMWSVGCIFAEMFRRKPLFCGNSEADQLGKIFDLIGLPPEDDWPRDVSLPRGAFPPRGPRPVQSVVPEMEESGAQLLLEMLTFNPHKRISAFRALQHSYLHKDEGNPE
T1 sequence (Q96SW2 whole entry partner): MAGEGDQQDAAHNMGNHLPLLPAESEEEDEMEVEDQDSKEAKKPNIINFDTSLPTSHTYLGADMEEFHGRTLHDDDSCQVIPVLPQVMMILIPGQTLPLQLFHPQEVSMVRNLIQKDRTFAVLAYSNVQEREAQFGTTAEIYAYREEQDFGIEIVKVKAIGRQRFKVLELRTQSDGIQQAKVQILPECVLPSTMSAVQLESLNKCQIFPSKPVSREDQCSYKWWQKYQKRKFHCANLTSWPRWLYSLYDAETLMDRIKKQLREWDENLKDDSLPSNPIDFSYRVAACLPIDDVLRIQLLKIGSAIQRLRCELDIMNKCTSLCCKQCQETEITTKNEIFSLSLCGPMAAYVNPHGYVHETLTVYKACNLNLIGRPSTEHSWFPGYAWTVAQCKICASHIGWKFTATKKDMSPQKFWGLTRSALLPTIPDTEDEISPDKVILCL

[3] = Toxicity in BALB/c nude mouse xenografted with human NCI-H3122 cells assessed as effect on liver function at 75 mg/kg, IG administered once daily for 18 days by H and E staining based assay; type: organism-based; settings: in vivo, po, 432 h, time 18 day
NCI-H3122 [4] = experiment: Antiproliferative activity against human NCI-H3122 cells assessed as inhibition of cell growth incubated for 5 days by MTT assay; type: functional, cell-based; settings: NCI-H3122, 120 h
NCI-H3122 [5] = experiment: Antiproliferative activity against human NCI-H3122 cells assessed as inhibition of cell growth pretreated with GSH followed by compound addition and incubated for 3 to 5 days by MTT assay; type: functional, cell-based
[6] = molecular target: T2, Protein cereblon/ALK tyrosine kinase receptor/Echinoderm microtubule-associated protein-like 4 (Homo sapiens) (UniProt Q9UM73+Q9HC35+Q96SW2); experiment: PROTAC activity at CRBN/EML4-ALK in human L02 cells assessed as reduction in ALK protein level at 1 to 20 uM incubated for 24 hrs by Western blot analysis; type: cell-based; settings: dose 1-20 µM
T2 sequence (Q96SW2 whole entry partner): as above
T2 sequence (Q9HC35 whole entry partner): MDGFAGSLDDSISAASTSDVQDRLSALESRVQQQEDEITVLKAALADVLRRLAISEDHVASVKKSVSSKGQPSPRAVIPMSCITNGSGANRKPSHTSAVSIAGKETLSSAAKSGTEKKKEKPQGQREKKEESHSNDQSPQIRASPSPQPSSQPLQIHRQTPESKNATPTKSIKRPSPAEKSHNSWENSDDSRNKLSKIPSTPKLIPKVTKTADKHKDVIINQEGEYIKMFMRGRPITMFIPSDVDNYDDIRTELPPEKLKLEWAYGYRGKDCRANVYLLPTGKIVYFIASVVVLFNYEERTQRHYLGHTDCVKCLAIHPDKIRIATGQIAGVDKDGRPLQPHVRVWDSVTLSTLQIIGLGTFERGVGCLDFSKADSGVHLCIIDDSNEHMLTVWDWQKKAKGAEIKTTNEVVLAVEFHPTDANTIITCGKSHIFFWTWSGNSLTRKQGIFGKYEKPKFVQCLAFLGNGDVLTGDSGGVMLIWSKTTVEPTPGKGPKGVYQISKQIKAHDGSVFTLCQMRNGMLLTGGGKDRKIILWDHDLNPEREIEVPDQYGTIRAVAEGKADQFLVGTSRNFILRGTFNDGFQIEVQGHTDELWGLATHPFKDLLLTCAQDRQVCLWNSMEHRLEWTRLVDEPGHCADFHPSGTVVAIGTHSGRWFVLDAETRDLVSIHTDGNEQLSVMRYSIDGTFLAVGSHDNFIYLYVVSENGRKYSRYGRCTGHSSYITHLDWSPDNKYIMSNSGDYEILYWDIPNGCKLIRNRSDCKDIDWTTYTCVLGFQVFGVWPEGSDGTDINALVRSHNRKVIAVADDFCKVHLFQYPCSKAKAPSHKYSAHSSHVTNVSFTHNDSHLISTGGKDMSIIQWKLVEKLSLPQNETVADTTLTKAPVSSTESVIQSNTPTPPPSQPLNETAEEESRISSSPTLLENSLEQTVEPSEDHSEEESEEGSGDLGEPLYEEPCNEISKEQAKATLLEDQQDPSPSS
T2 sequence (Q9UM73 19-1620 limits assumed): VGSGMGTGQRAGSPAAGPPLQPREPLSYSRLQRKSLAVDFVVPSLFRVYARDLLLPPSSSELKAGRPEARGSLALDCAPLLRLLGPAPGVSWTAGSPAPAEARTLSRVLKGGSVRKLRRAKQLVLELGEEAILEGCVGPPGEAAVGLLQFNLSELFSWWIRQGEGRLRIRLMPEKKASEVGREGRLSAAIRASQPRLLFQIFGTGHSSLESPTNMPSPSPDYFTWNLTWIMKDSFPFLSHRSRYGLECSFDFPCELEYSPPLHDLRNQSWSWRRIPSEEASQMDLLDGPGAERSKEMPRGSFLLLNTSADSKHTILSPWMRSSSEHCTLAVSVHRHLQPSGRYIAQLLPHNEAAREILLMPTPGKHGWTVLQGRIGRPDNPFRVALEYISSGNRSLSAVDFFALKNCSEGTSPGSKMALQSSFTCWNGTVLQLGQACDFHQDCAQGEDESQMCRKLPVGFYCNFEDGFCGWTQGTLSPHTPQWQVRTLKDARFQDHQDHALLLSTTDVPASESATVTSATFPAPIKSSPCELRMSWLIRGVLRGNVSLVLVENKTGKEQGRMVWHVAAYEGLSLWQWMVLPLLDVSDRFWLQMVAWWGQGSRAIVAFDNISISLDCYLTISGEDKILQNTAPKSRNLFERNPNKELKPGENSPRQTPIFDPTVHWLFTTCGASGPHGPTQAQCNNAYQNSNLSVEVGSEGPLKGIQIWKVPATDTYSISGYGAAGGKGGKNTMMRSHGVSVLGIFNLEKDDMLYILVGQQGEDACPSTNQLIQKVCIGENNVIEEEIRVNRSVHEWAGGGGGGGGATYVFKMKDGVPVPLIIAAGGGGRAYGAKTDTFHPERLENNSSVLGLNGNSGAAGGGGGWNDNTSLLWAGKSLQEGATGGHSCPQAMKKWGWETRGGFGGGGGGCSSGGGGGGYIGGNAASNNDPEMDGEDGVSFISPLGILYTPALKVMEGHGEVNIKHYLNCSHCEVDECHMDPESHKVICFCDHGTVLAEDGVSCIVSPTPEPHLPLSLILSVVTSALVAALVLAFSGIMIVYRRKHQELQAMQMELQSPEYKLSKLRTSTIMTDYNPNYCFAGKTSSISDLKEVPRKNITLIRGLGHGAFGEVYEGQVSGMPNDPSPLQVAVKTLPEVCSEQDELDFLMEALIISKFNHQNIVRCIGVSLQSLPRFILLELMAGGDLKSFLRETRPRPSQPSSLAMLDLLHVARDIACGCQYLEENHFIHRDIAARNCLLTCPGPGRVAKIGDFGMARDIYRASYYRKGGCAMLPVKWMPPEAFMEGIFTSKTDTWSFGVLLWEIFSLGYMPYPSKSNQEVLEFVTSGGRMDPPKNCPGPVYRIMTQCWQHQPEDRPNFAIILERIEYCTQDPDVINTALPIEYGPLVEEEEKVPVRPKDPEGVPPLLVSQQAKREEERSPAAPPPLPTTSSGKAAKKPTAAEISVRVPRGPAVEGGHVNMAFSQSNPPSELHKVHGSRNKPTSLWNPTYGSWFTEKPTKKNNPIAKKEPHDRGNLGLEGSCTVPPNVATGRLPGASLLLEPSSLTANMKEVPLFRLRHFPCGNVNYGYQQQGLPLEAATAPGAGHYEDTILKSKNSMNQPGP

[7] = Cytotoxicity against human L02 cells assessed as inhibition of cell growth pretreated with GSH followed by compound addition and incubated for 3 to 5 days by MTT assay; type: toxicity, cell-based
[8] = Stability of the compound in mouse plasma assessed as cleavage to metabolites measured after 4 hrs by LC-MS/MS analysis relative to control; type: ADME, cell-free
[9] = Toxicity in BALB/c nude mouse xenografted with human NCI-H3122 cells assessed as reduction in body weight at 25 to 75 mg/kg, IG administered once daily for 18 days; type: organism-based; settings: in vivo, po, 432 h, dose 25-75 mg/kg, time 18 day
[10] = Stability of the compound in PBS buffer assessed as cleavage half life in presence of GSH by LC-MS/MS analysis; type: physicochemical; settings: PBS buffer with GSH
NCI-H3122 [11] = experiment: Antitumor activity against human NCI-H3122 cells xenografted in BALB/c nude mouse assessed as tumor growth inhibition at 50 mg/kg, IG administered once daily for 18 days and measured after 12 hrs of last dose relative to control; type: functional; settings: NCI-H3122, po, time 444 hrs, read-out: TGI
[12] = molecular target: Protein cereblon/Cyclin-dependent kinase 6 (Homo sapiens) (UniProt Q00534+Q96SW2); experiment: PROTAC activity at CRBN/CDK6 in human NCI-H3122 cells assessed as reduction in CDK6 protein level at 1 to 10 uM incubated for 24 hrs by Western blot analysis; type: cell-based; settings: dose 1-10 µM
Protein cereblon/Cyclin-dependent kinase 6 (Homo sapiens), sequence (Q00534 whole entry, looked up): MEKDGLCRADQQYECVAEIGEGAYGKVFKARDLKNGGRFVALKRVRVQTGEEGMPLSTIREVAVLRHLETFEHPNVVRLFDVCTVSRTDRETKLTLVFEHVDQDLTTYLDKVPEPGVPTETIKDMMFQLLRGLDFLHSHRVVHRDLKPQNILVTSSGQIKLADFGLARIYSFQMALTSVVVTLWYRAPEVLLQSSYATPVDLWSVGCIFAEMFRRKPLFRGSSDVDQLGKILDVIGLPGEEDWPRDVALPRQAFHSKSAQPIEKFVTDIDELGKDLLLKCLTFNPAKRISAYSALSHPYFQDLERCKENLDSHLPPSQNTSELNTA
Protein cereblon/Cyclin-dependent kinase 6 (Homo sapiens), sequence (Q96SW2 whole entry, looked up): as the sequence (Q96SW2 whole entry partner) above

NCI-H3122 [13] = experiment: Inhibition of colony formation in human NCI-H3122 cells assessed as reduction in number of colonies measured after 10 days by crystal violet staining based microscopic analysis; type: functional, cell-based; settings: dose 0.039-0.312 µM, time 10.0 day
[14] = Toxicity in BALB/c nude mouse xenografted with human NCI-H3122 cells assessed as effect on visceral liver morphology at 75 mg/kg, IG administered once daily for 18 days and measured after 12 hrs of last dose by H and E staining based analysis; type: organism-based; settings: in vivo, po, 444 h
NCI-H3122 [15] = experiment: Antitumor activity against human NCI-H3122 cells xenografted in BALB/c nude mouse assessed as tumor growth inhibition at 75 mg/kg, IG administered once daily for 18 days and measured after 12 hrs of last dose relative to control; type: functional; settings: NCI-H3122, po, time 444 hrs, read-out: TGI
NCI-H3122 [16] = experiment: Induction of apoptosis in human NCI-H3122 cells assessed as early apoptotic cells at 0.312 uM incubated for 48 hrs by Annexin V-FITC/propidium iodide staining based flow cytometric analysis (reference value: 0.71%); type: functional
[17] = molecular target: Protein cereblon/ALK tyrosine kinase receptor (Homo sapiens) (UniProt Q9UM73+Q96SW2); experiment: PROTAC activity at CRBN/ALK in human NCI-H2228 cells assessed as reduction in ALK protein level by Western blot analysis; type: cell-based
Protein cereblon/ALK tyrosine kinase receptor (Homo sapiens), sequence (Q96SW2 whole entry partner): as above
Protein cereblon/ALK tyrosine kinase receptor (Homo sapiens), sequence (Q9UM73 19-1620 limits assumed): as the sequence (Q9UM73 19-1620 limits assumed) above

NCI-H3122 [18] = experiment: Induction of apoptosis in human NCI-H3122 cells assessed as late apoptotic cells at 1.25 uM incubated for 48 hrs by Annexin V-FITC/propidium iodide staining based flow cytometric analysis (reference value: 3.06%); type: functional
[19] = molecular target: T2, Protein cereblon/ALK tyrosine kinase receptor/Echinoderm microtubule-associated protein-like 4 (Homo sapiens); experiment: PROTAC activity at CRBN/EML4-ALK in human L02 cells assessed as reduction in ALK protein level at 1 to 20 uM incubated for 24 hrs in presence of GSH by Western blot analysis; type: cell-based; settings: dose 1-20 µM
NCI-H3122 [20] = experiment: Induction of apoptosis in human NCI-H3122 cells assessed as early apoptotic cells at 1.25 uM incubated for 48 hrs by Annexin V-FITC/propidium iodide staining based flow cytometric analysis (reference value: 0.71%); type: functional
[21] = molecular target: T1, Protein cereblon/Cyclin-dependent kinase 4; experiment: PROTAC activity at CRBN/CDK4 in human NCI-H3122 cells assessed as degradation of CDK4 protein at 5 uM pretreated with palbociclib for 4 hrs followed by compound addition and measured after 24 hrs by Western blot analysis; type: cell-based
NCI-H1299 = experiment: Antiproliferative activity against human NCI-H1299 cells assessed as inhibition of cell growth pretreated with GSH followed by compound addition and incubated for 3 to 5 days by MTT assay; type: functional, cell-based
NCI-H3122 [22] = experiment: Cell cycle arrest in human NCI-H3122 cells assessed as G2/M phase cells at 2.5 uM incubated for 24 hrs by propidium iodide staining based flow cytometric analysis (reference value: 20.89%); type: functional
[23] = Toxicity in BALB/c nude mouse xenografted with human NCI-H3122 cells assessed as tolerance at 25 to 75 mg/kg, IG administered once daily for 18 days; type: organism-based; settings: in vivo, po, 432 h, dose 25-75 mg/kg, time 18 day
NCI-H3122 [24] = experiment: Cell cycle arrest in human NCI-H3122 cells assessed as accumulation of cells at S phase at 0.625 uM incubated for 24 hrs by propidium iodide staining based flow cytometric analysis (reference value: 29.94%); type: functional
NCI-H3122 [25] = experiment: Induction of apoptosis in human NCI-H3122 cells assessed as necrotic cells at 0.312 uM incubated for 48 hrs by Annexin V-FITC/propidium iodide staining based flow cytometric analysis (reference value: 0.57%); type: functional
[26] = Stability of the compound in PBS buffer incubated upto 24 hrs in the presence of GSH by LC-MS/MS analysis; type: physicochemical
[27] = molecular target: T2, Protein cereblon/ALK tyrosine kinase receptor/Echinoderm microtubule-associated protein-like 4 (Homo sapiens); experiment: PROTAC activity at CRBN/EML4-ALK in human NCI-H3122 cells assessed as downregulation of phosphorylated STAT3 level by Western blot analysis; type: cell-based
[28] = molecular target: T2, Protein cereblon/ALK tyrosine kinase receptor/Echinoderm microtubule-associated protein-like 4 (Homo sapiens); experiment: PROTAC activity at CRBN/EML4-ALK in human NCI-H2228 cells assessed as reduction in EML4-ALK fusion protein level incubated for 24 hrs by Western blot analysis; type: cell-based
NCI-H3122 [29] = experiment: Inhibition of colony formation in human NCI-H3122 cells assessed as reduction in number of colonies at 0.312 uM measured after 10 days by crystal violet staining based microscopic analysis relative to control; type: functional; settings: NCI-H3122, 240 h, time 10 day

With `CC(=O)c1c(C)c2cnc(Nc3ccc(N4CCN(CC(=O)NCCSSCCN(CC(=O)NCCNc5cccc6c5C(=O)N(C5CCC(=O)NC5=O)C6=O)C(=O)CCCCCCC(=O)N5CCC(c6cc(OC(C)C)c(Nc7ncc(Cl)c(Nc8ccccc8S(=O)(=O)C(C)C)n7)cc6C)CC5)CC4)cn3)nc2n(C2CCCC2)c1=O` (stereo not given) the Activity (NCI-H3122 [1]) was 2.11%, the Activity [2] was 70% and the Activity [3] was “Non-Toxic”. For the same compound, the pIC50 (NCI-H3122 [4]) was 6.96, the pIC50 (NCI-H3122 [5]) was 7.05 and the Activity [6] was “Active”. The pIC50 [7] was 4.90, the Drug degradation [8] was 30% and the Activity [9] was “Non-Toxic”. The half-life [10] was greater than 24 h, the inhibition in vivo at 50 mg/kg (NCI-H3122 [11]) was 54.8% and the Activity [12] was “inactive”. The inhibition (NCI-H3122 [13]) was “Dose-Dependent Effect”, the Activity [14] was “Non-Toxic” and the inhibition in vivo at 75 mg/kg (NCI-H3122 [15]) was 60.5%. The Activity (NCI-H3122 [16]) was 1.92%, the Activity [17] was “Active” and the Activity (NCI-H3122 [18]) was 10.54%. For the same compound, the Activity [19] was “Active”, the Activity (NCI-H3122 [20]) was 1.03% and the Activity [21] was “inactive”. For the same compound, the pIC50 (NCI-H1299) was 5.33, the Activity (NCI-H3122 [22]) was 11.78% and the Activity [23] was “Non-Toxic”. The Activity (NCI-H3122 [24]) was 14.44%, the Activity (NCI-H3122 [25]) was 0.6% and the Stability [26] was “Stable”. For the same compound, the Activity [27] was “Active”, the Activity [28] was “Active” and the inhibition at 0.312 µM (NCI-H3122 [29]) was 100%.
